Measurements from ChEMBL document CHEMBL5608229, “Innovative Multistage ML-QSAR Models for Malaria: From Data to Discovery” (ACS Med Chem Lett, 2024).

How the values were obtained:
Plasmodium falciparum [1] = experiment: Antiplasmodial activity against […] Plasmodium falciparum NF54 assessed as parasite growth inhibition at 5 uM incubated for 48 hrs by luciferase based analysis relative to control; format: functional
Plasmodium berghei [2] = experiment: Antiplasmodial activity against […] Plasmodium berghei infected in mouse model assessed as parasite growth inhibition at 10 uM pre-infected mouse with parasite followed by blood collection from mouse and subsequent addition of compound in blood measured after 24 hrs by nano-luciferase based analysis relative to control; format: functional; conditions: read-out: INH
Plasmodium falciparum [3] = experiment: Antiplasmodial activity against asexual blood-stage CQ-sensitive Plasmodium falciparum 3D7 infected in RBC assessed as parasite growth reduction incubated for 72 hrs by SybrGreen dye based analysis; format: functional, organism-based; conditions: 3D7, Erythrocyte
[4] = Cytotoxicity against African green monkey COS-7 cells incubated for 72 hrs by MTT assay; format: toxicity, cell-based; conditions: chlorocebus aethiops
[5] = Cytotoxicity against human HepG2 cells incubated for 72 hrs by MTT assay; format: toxicity, cell-based
Plasmodium falciparum [6] = experiment: Antiplasmodial activity against asexual blood-stage CQ-sensitive Plasmodium falciparum 3D7 infected in RBC assessed as parasite growth inhibition at 5 uM incubated for 72 hrs by SybrGreen dye based analysis relative to control; format: functional; conditions: 3D7, Erythrocyte
Plasmodium falciparum [7] = experiment: Antiplasmodial activity against asexual blood-stage multidrug-resistant Plasmodium falciparum Dd2 infected in RBC assessed as parasite growth inhibition at 5 uM incubated for 72 hrs by SybrGreen dye based analysis relative to control; format: functional; conditions: Dd2, Erythrocyte
Plasmodium berghei [8] = experiment: Antiplasmodial activity against asexual liver schizonts-stage Plasmodium berghei infected in human Huh-7 cells assessed as parasite growth inhibition at 10 uM pretreated parasite with compound for 1 hr followed by parasitic infection in cells for 46 hrs by bioluminescence assay relative to control; format: functional
Plasmodium falciparum [9] = experiment: Antiplasmodial activity against asexual blood-stage multidrug-resistant Plasmodium falciparum Dd2 infected in RBC assessed as parasite growth reduction incubated for 72 hrs by SybrGreen dye based analysis; format: functional, organism-based; conditions: Dd2, Erythrocyte
[10] = Selectivity index, ratio of CC50 for African green monkey COS-7 cells to EC50 for asexual blood-stage CQ-sensitive Plasmodium falciparum 3D7 infected in RBC; format: toxicity; conditions: read-out: Ratio CC50/EC50
[11] = Selectivity index, ratio of CC50 for human HepG2 cells to EC50 for asexual blood-stage chloroquine-sensitive Plasmodium falciparum 3D7 infected in RBC

SMILES | inhibition at 5 µM (Plasmodium falciparum [1]) | percent ookinete growth inhibition (ex vivo) at 10 µM (Plasmodium berghei [2]) | EC50 (Plasmodium falciparum [3]) | CC50 at 72 h [4] | CC50 at 72 h [5] | inhibition at 5 µM (Plasmodium falciparum [6]) | inhibition at 5 µM (Plasmodium falciparum [7]) | inhibition at 10 µM (Plasmodium berghei [8]) | EC50 (Plasmodium falciparum [9]) | selectivity ratio [10] | selectivity ratio [11]
Clc1ccc(-c2nc(Nc3ccc(I)cc3)c3ccccc3n2)cc1 | 6% | 44.7% | > 10 µM | 51.5 µM | 34.8 µM | – | – | – | – | – | –
CN(C)CCCN(CCCN(C)C)Cc1cccc2ccccc12 | 33% | 3.26% | 5.46 µM | > 100 µM | > 100 µM | > 50% | > 50% | 0% | 2.64 µM | > 18 | > 18
CCc1ccc(C2CC(=O)C3=C(C2)NC(C)=C(C(=O)OCCc2ccccc2)C3c2ccncc2)cc1 (configuration not stated) | 14% | 11% | 13.5 µM | 125 µM | 54.4 µM | – | – | 92.2% | – | 9 | 4
c1ccc(CCN2CCC(NC34CC5CC(CC(C5)C3)C4)CC2)cc1 | 86% | 16% | 1.78 µM | 48.3 µM | 38.1 µM | > 90% | > 90% | 0% | 0.43 µM | 27 | 21
COc1cc2nnc(NCC3(N(C)C)CCCCC3)nc2cc1OC | 94% | 65.3% | 0.65 µM | 51 µM | 93.1 µM | > 50% | > 50% | 0% | 2.65 µM | 78 | 142
Oc1c(CN2CCCCC2)cc(CN2CCCCC2)nc1-c1ccccc1 | 51% | 0% | 1.55 µM | > 100 µM | > 100 µM | > 50% | > 50% | 0% | 1.65 µM | > 64 | > 64
COc1cc2nc(NCCc3nc(=O)c4c(C)c(C)sc4[nH]3)nc(N)c2cc1OC | 94% | 65% | 1.38 µM | 12.3 µM | 13.6 µM | ≥ 50% | ≥ 50% | 90.3% | 3.67 µM | 9 | 9.9
C=CCc1cc(CN2CCC3(CC2)CN(C)CCN3C)ccc1O | 51% | 5.43% | 1.49 µM | > 100 µM | > 100 µM | > 50% | > 50% | 0% | 2.59 µM | > 67 | > 67
c1ccc2c(CCNC34CC5CC(CC(C5)C3)C4)c[nH]c2c1 | 12% | – | 11.8 µM | 77.3 µM | 53.1 µM | – | – | 0% | – | 7 | 4.5
c1ccc(C23CN4CCN(CC(C4)C2NCc2ccc4c(c2)OCCO4)C3)cc1 (configuration not stated) | 6% | 0% | > 10 µM | > 100 µM | > 100 µM | – | – | 0% | – | – | –
COCCCNCCCCOc1ccc2ccccc2c1Br | 51.3% | 66.1% | 3.04 µM | 11 µM | 10.4 µM | ≥ 50% | ≥ 50% | 49.4% | 1.12 µM | 2.7 | 3.4
Cc1ccc(Nc2nc(-c3ccccc3Cl)nc3ccccc23)cc1 | 1% | 45.6% | > 10 µM | 42.8 µM | 33.2 µM | – | – | – | – | – | –
c1ccc2c(CCNC3CC4CCC3C4)c[nH]c2c1 (configuration not stated) | 11.5% | – | > 10 µM | > 100 µM | > 100 µM | – | – | 0% | – | – | –
COc1ccc(CN2CCCC(CO)(Cc3ccccc3)C2)c(C)c1C (configuration not stated) | 13.5% | 42.7% | > 10 µM | 50.4 µM | 44.1 µM | – | – | 73.9% | – | – | –
CCCOc1c(Br)cc(C2C3=C(CCCC3=O)NC3=C2C(=O)CCC3)cc1OC | 9.5% | 56.8% | > 10 µM | 56.4 µM | 30.5 µM | – | – | 6.96% | – | – | –
c1ccc(C23CN4CCN(CC(C4)C2NCc2nc4ccccc4[nH]2)C3)cc1 (configuration not stated) | 20% | 56% | > 10 µM | > 100 µM | > 100 µM | – | – | 0% | – | – | –
C[C@H]1[C@H](OC(=O)CCC(=O)O)O[C@@H]2O[C@@]3(C)CC[C@H]4[C@H](C)CC[C@@H]1[C@@]24OO3 [ARTESUNATE] | – | – | 0.002 µM | – | – | – | – | – | 0.002 µM | – | –
CCN(CC)CCCC(C)Nc1ccnc2cc(Cl)ccc12 (configuration not stated) [CHLOROQUINE] | – | – | 0.008 µM | – | – | – | – | – | 0.055 µM | – | –
CCc1nc(N)nc(N)c1-c1ccc(Cl)cc1 [PYRIMETHAMINE] | – | – | 0.039 µM | – | – | – | – | – | 6.01 µM | – | –
